According to patent publication US4670038A, “Cyclotriphosphazatriene-derivatives as soil urease activity inhibitors” (Tennessee Valley Authority, priority 1986, dated 1987):
Entries after “also recorded” stand apart in the source; their conditions may differ. Read-outs that look alike come from different tables or passages of the source.

Assays:
soil urease [1] = experiment: Urea hydrolysis in bands of urea plus inhibitor in Hastings silt loam soil (banded system); type: biochemical; conditions: for Unhydrolyzed Urea, % Banded 3-Day / Unhydrolyzed Urea, % Banded 6-Day: Table VI, 41 mg inhibitor/band; for Unhydrolyzed Urea, % 3 Days / Unhydrolyzed Urea, % Banded 3-Day: 3 days; for Unhydrolyzed Urea, % 6 Days / Unhydrolyzed Urea, % Banded 6-Day: 6 days
soil urease [2] = experiment: Urea remaining unhydrolyzed in Hastings silt loam soil, well-mixed system; type: biochemical; conditions: for Soil urease inhibitory properties in words, well-mixed system: 1-, 3- and 6-day tests, compared with phenyl phosphorodiamidate; for Time until percentage urease inhibition reaches 0% (FIG. 1): FIG. 1, plotted and extrapolated from data of Table V, conventional test; for Unhydrolyzed Urea, % Well-Mixed 1-Day / Unhydrolyzed Urea, % Well-Mixed 3-Day / Unhydrolyzed Urea, % Well-Mixed 6-Day: Table V, 41 mg inhibitor, 410 mg urea, 100 g soil, three replications, 25° C.; for Unhydrolyzed Urea, % Well-Mixed 3-Day: 3 days; for Unhydrolyzed Urea, % Well-Mixed 6-Day: 6 days
soil urease [3] = experiment: Soil urease inhibition in Crowley silt loam soil, extended time evaluation system (urea added at selected intervals); type: biochemical; conditions: for Soil Urease Inhibition, 0 Days / Soil Urease Inhibition, 3 Days / Soil Urease Inhibition, 7 Days / Soil Urease Inhibition, 14 Days / Soil Urease Inhibition, 21 Days: 7 micromoles compound per 120 g Crowley silt loam, reincubated 16 hours; for Soil Urease Inhibition, 0 Days: urea added after 0 days; for Soil Urease Inhibition, 3 Days: urea added after 3 days; for Soil Urease Inhibition, 7 Days: urea added after 7 days; for Soil Urease Inhibition, 14 Days: urea added after 14 days; for Soil Urease Inhibition, 21 Days: urea added after 21 days
[4] = cited from earlier work
[5] = soil, 168 h; cited from earlier work
[6] = Table II, equimolar basis, 0.25 millimoles inhibitor/band, 410 mg urea/band, three replications, Hastings silt loam, 25° C.
[7] = Hastings silt loam, banded system, 3-day and 6-day tests
[8] = 410 mg urea/band, three replications, Hastings silt loam, 25° C.
[9] = Table IV, inhibitor 10 percent of urea (wt/wt), 41 mg/band, two replications, Hastings silt loam
[10] = Table III, inhibitor 10 percent of urea (wt/wt), 41 mg/band, four replications, Hastings silt loam, 25° C.

NC(=O)NO [CO(NH2)(NHOH), Hydroxyurea, reference compound]
Unhydrolyzed Urea, % 3 Days (soil urease [1]; [6]): 20.3% | Unhydrolyzed Urea, % 6 Days (soil urease [1]; [6]): 0.2%

CC(=O)NO [CH3 C(NOH)(OH), Acetohydroxamic acid, reference compound]
Unhydrolyzed Urea, % 3 Days (soil urease [1]; [6]): 26.2% | Unhydrolyzed Urea, % 6 Days (soil urease [1]; [6]): 6.7%

NP1(N)=NP(N)(Oc2ccccc2)=NP(N)(Oc2ccccc2)=N1 (centres unmarked) [P3 N3 (NH2)4 (OC6 H5)2, 2,4-diphenoxy-2,4,6,6-tetraaminocyclotriphosphazatriene]
Soil urease inhibitory properties in words, well-mixed system (soil urease [2]): comparable to phenyl phosphorodiamidate | Time until percentage urease inhibition reaches 0% (FIG. 1) (soil urease [2]): about 10 days | Unhydrolyzed Urea, % Well-Mixed 1-Day (soil urease [2]): 94% | Unhydrolyzed Urea, % Well-Mixed 3-Day (soil urease [2]): 74% | Unhydrolyzed Urea, % Well-Mixed 6-Day (soil urease [2]): 36% | Soil Urease Inhibition, 0 Days (soil urease [3]; 30° C.): 75% | Soil Urease Inhibition, 3 Days (soil urease [3]; 30° C.): 94% | Soil Urease Inhibition, 7 Days (soil urease [3]; 30° C.): 71% | Soil Urease Inhibition, 14 Days (soil urease [3]; 30° C.): 69% | Soil Urease Inhibition, 21 Days (soil urease [3]; 30° C.): 65% | Soil urease inhibition in words, banded soil tests (soil urease [1]; [7]): inhibit soil urease during the 3-day and 6-day tests | Unhydrolyzed Urea, % Banded 3-Day (soil urease [1]; [8]): 60% | Unhydrolyzed Urea, % Banded 6-Day (soil urease [1]; [8]): 4%

CNP1(NC)=NP(N)(N)=NP(NC)(NC)=N1 [P3 N3 (NH2)2 (NHCH3)4, 2,2,4,4,-tetra(monomethylamino)-6,6-diaminocyclotriphosphazatriene]
Unhydrolyzed Urea, % 3 Days (soil urease [1]; [9]): 0.5% | Unhydrolyzed Urea, % 6 Days (soil urease [1]; [9]): 0.0%

CNP1(NC)=NP(NC)(NC)=NP(NC)(NC)=N1 [P3 N3 (NHCH3)6, 2,2,4,4,6,6-hexa(monomethylamino)cyclotriphosphazatriene]
Soil urease inhibition in words, banded soil tests (soil urease [1]; [7]): do not exhibit urease inhibition | Unhydrolyzed Urea, % 3 Days (soil urease [1]; [9]): 0.0% | Unhydrolyzed Urea, % 6 Days (soil urease [1]; [9]): 0.0%

CN(C)P1(N(C)C)=NP(N(C)C)(N(C)C)=NP(N(C)C)(N(C)C)=N1 [P3 N3 [N(CH3)2]6, 2,2,4,4,6,6-hexa(dimethylamino)cyclotriphosphazatriene]
Soil urease inhibition in words, banded soil tests (soil urease [1]; [7]): do not exhibit urease inhibition | Unhydrolyzed Urea, % 3 Days (soil urease [1]; [9]): 0.0% | Unhydrolyzed Urea, % 6 Days (soil urease [1]; [9]): 0.0%

CN(C)P1(N(C)C)=NP(N)(N)=NP(N(C)C)(N(C)C)=N1 [P3 N3 (NH2)2 [N(CH3)2]4, 2,2,4,4,-tetra(dimethylamino)-6,6-diaminocyclotriphosphazatriene]
Soil urease inhibition in words, banded soil tests (soil urease [1]; [7]): do not exhibit urease inhibition

NP1(Oc2ccccc2)=NP(N)(Oc2ccccc2)=NP(N)(Oc2ccccc2)=N1 (centres unmarked) [P3 N3 (NH2)3 (OC6 H5)3, 2,4,6-triphenoxy-2,4,6-triaminocyclotriphosphazatriene]
Soil urease inhibitory properties in words, well-mixed system (soil urease [2]): less than that of phenyl phosphorodiamidate | Unhydrolyzed Urea, % Well-Mixed 1-Day (soil urease [2]): 82% | Unhydrolyzed Urea, % Well-Mixed 3-Day (soil urease [2]): 37% | Unhydrolyzed Urea, % Well-Mixed 6-Day (soil urease [2]): 0% | Soil Urease Inhibition, 0 Days (soil urease [3]; 30° C.): 22% | Soil Urease Inhibition, 3 Days (soil urease [3]; 30° C.): 79% | Soil Urease Inhibition, 7 Days (soil urease [3]; 30° C.): 74% | Soil Urease Inhibition, 14 Days (soil urease [3]; 30° C.): 84% | Soil Urease Inhibition, 21 Days (soil urease [3]; 30° C.): 82% | Urease inhibition sustained during the period from 7 to 21 days (FIG. 2) (soil urease [3]; Crowley silt loam, 30° C., period from 7 to 21 days): greater than 80% | Unhydrolyzed Urea, % Banded 3-Day (soil urease [1]; [8]): 21% | Unhydrolyzed Urea, % Banded 6-Day (soil urease [1]; [8]): 0%

ClP1(Oc2ccccc2)=NP(Cl)(Oc2ccccc2)=NP(Cl)(Oc2ccccc2)=N1 (centres unmarked) [P3 N3 (Cl)3 (OC6 H5)3, 2,4,6-triphenoxy-2,4,6-trichlorocyclotriphosphazatriene]
Soil urease inhibition in words, banded soil tests (soil urease [1]): not effective urease inhibitors

NP1(N)=NP(N)(N)=NP(N)(N)=N1 [P3 N3 (NH2)6, 2,2,4,4,6,6-hexaaminocyclotriphosphazatriene]
Time of hydrolysis ([4]; pH 8, 15° C.): about 300 hours | Time of hydrolysis ([4]; pH 8, 30° C.): ~100 h | Soil urease inhibitory properties in words, well-mixed system (soil urease [2]): less than that of phenyl phosphorodiamidate | Unhydrolyzed Urea, % Well-Mixed 1-Day (soil urease [2]): 86% | Unhydrolyzed Urea, % Well-Mixed 3-Day (soil urease [2]): 57% | Unhydrolyzed Urea, % Well-Mixed 6-Day (soil urease [2]): 9% | Soil Urease Inhibition, 0 Days (soil urease [3]; 30° C.): 46% | Soil Urease Inhibition, 3 Days (soil urease [3]; 30° C.): 23% | Soil Urease Inhibition, 7 Days (soil urease [3]; 30° C.): 20% | Soil Urease Inhibition, 14 Days (soil urease [3]; 30° C.): 4% | Soil Urease Inhibition, 21 Days (soil urease [3]; 30° C.): 4% | Soil Urease Inhibition, 21 Days (soil urease [3]; 30° C., listed as hexaaminocyclotriphosphazatriene): about 4% | Urease inhibition compared with reference standard PPDA, in words (FIG. 2) (soil urease [3]; time independent modified soil evaluation procedure, 21-day test period): as good or better than PPDA for the time period from 14 to 21 days | Percent hydrolyzed in 7 days [5]: 6-13% | Soil urease inhibition in words, banded soil tests (soil urease [1]; [7]): comparable to PPDA as an inhibitor of soil urease activity; also recorded: inhibit soil urease during the 3-day and 6-day tests | Unhydrolyzed Urea, % 3 Days (soil urease [1]; [6]): 48.1% | Unhydrolyzed Urea, % 6 Days (soil urease [1]; [6]): 16.8% | Unhydrolyzed Urea, % 3 Days (soil urease [1]; [10]): 49.7% | Unhydrolyzed Urea, % 6 Days (soil urease [1]; [10]): 9.5% | Unhydrolyzed Urea, % 3 Days (soil urease [1]; [9]): 53.8% | Unhydrolyzed Urea, % 6 Days (soil urease [1]; [9]): 9.5% | Unhydrolyzed Urea, % Banded 3-Day (soil urease [1]; [8]): 64% | Unhydrolyzed Urea, % Banded 6-Day (soil urease [1]; [8]): 8%

NP(N)(N)=O [PO(NH2)3, Phosphoryltriamide, reference compound]
Soil Urease Inhibition, 0 Days (soil urease [3]; 30° C.): 29% | Soil Urease Inhibition, 3 Days (soil urease [3]; 30° C.): 4% | Soil Urease Inhibition, 7 Days (soil urease [3]; 30° C.): 12% | Soil Urease Inhibition, 14 Days (soil urease [3]; 30° C.): 0% | Soil Urease Inhibition, 21 Days (soil urease [3]; 30° C.): 0% | Unhydrolyzed Urea, % 3 Days (soil urease [1]; [6]): 43.4% | Unhydrolyzed Urea, % 6 Days (soil urease [1]; [6]): 1.8% | Unhydrolyzed Urea, % 3 Days (soil urease [1]; [10]): 48.1% | Unhydrolyzed Urea, % 6 Days (soil urease [1]; [10]): 1.1% | Unhydrolyzed Urea, % 3 Days (soil urease [1]; [9]): 54.2% | Unhydrolyzed Urea, % 6 Days (soil urease [1]; [9]): 2.6%

NP1(N)=NP(N)(N)=NP(N)(Oc2ccccc2)=N1 (centres unmarked) [P3 N3 (NH2)5 (OC6 H5), 2-phenoxy-2,4,4,6,6-pentaaminocyclotriphosphazatriene]
Soil urease inhibitory properties in words, well-mixed system (soil urease [2]): comparable to phenyl phosphorodiamidate | Time until percentage urease inhibition reaches 0% (FIG. 1) (soil urease [2]): about 10 days | Unhydrolyzed Urea, % Well-Mixed 1-Day (soil urease [2]): 96% | Unhydrolyzed Urea, % Well-Mixed 3-Day (soil urease [2]): 82% | Unhydrolyzed Urea, % Well-Mixed 6-Day (soil urease [2]): 44% | Soil Urease Inhibition, 0 Days (soil urease [3]; 30° C.): 95% | Soil Urease Inhibition, 3 Days (soil urease [3]; 30° C.): 75% | Soil Urease Inhibition, 7 Days (soil urease [3]; 30° C.): 49% | Soil Urease Inhibition, 14 Days (soil urease [3]; 30° C.): 42% | Soil Urease Inhibition, 21 Days (soil urease [3]; 30° C.): 44% | Soil urease inhibition in words, banded soil tests (soil urease [1]; [7]): inhibit soil urease during the 3-day and 6-day tests | Unhydrolyzed Urea, % Banded 3-Day (soil urease [1]; [8]): 61% | Unhydrolyzed Urea, % Banded 6-Day (soil urease [1]; [8]): 7%
